Experimental data reported in ChEMBL document CHEMBL1201861, “Genomics of Drug Sensitity in Cancer screening data, Wellcome Trust Sanger Institute”.

What was measured:
Assay in all cases: cells
Type in all cases: functional, cell-based, Homo sapiens
SK-MES-1 = details: Homo sapiens, SK-MES-1;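 note: growth inhibition of human SK-MES-1 cells, read out with a cell viability assay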
Description: SANGER: Inhibition of human SK-MES-1 cell growth in a cell viability assay.

NCI-H2052 = details: Homo sapiens, NCI-H2052;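 note: growth inhibition of NCI-H2052 cells, read out with a cell viability assay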
Description: SANGER: Inhibition of human NCI-H2052 cell growth in a cell viability assay.

YKG-1 = details: Homo sapiens, YKG-1;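 note: cell growth inhibition, read out with a viability assay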
Description: SANGER: Inhibition of human YKG-1 cell growth in a cell viability assay.

SK-LU-1 = details: Homo sapiens, SK-LU-1;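 note: cell viability assay measuring growth inhibition of human SK-LU-1 cells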
Description: SANGER: Inhibition of human SK-LU-1 cell growth in a cell viability assay.

A2780 = details: Homo sapiens, A2780;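 note: growth inhibition of A2780 cells, read out with a cell viability assay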
Description: SANGER: Inhibition of human A2780 cell growth in a cell viability assay.

SIMA = details: Homo sapiens, SIMA;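 note: growth inhibition of SIMA cells, measured with a cell viability readout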
Description: SANGER: Inhibition of human SIMA cell growth in a cell viability assay.

NY = details: Homo sapiens, NY
Description: SANGER: Inhibition of human NY cell growth in a cell viability assay.

A 172 = details: Homo sapiens, A 172;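 note: growth inhibition of A172 cells, measured with a cell viability readout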
Description: SANGER: Inhibition of human A172 cell growth in a cell viability assay.

AU565 = details: Homo sapiens, AU565;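 note: cell viability assay measuring growth inhibition of human AU565 cells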
Description: SANGER: Inhibition of human AU565 cell growth in a cell viability assay.

G-361 = details: Homo sapiens, G-361
SW1463 = details: Homo sapiens, SW1463;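 note: growth inhibition of SW1463 cells, determined with a cell viability assay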
Description: SANGER: Inhibition of human SW1463 cell growth in a cell viability assay.

HEC-1 = details: Homo sapiens, HEC-1;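 note: growth inhibition of the cell line, read out with a cell viability assay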
Description: SANGER: Inhibition of human HEC-1 cell growth in a cell viability assay.

HT-3 = details: Homo sapiens, HT-3;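 note: growth inhibition measured with a cell viability readout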
Description: SANGER: Inhibition of human HT-3 cell growth in a cell viability assay.

RPMI-7951 = details: Homo sapiens, RPMI-7951
Description: SANGER: Inhibition of human RPMI-7951 cell growth in a cell viability assay.

HSC-3 = details: Homo sapiens, HSC-3
Description: SANGER: Inhibition of human HSC-3 cell growth in a cell viability assay.

RMG-I = details: Homo sapiens, RMG-I;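 note: growth inhibition of human RMG-I cells, read out with a cell viability assay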
Description: SANGER: Inhibition of human RMG-I cell growth in a cell viability assay.

WM-115 = details: Homo sapiens, WM-115
Description: SANGER: Inhibition of human WM-115 cell growth in a cell viability assay.

LoVo = details: Homo sapiens, LoVo;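 note: growth inhibition of human LoVo cells, read out with a cell viability assay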
Description: SANGER: Inhibition of human LoVo cell growth in a cell viability assay.

HT-29 = details: Homo sapiens, HT-29;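 note: growth inhibition of human HT-29 cells, read out by a cell viability assay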
Description: SANGER: Inhibition of human HT-29 cell growth in a cell viability assay.

HT-1080 = details: Homo sapiens, HT-1080
Description: SANGER: Inhibition of human HT-1080 cell growth in a cell viability assay.

BHT-101 = details: Homo sapiens, BHT-101
Description: SANGER: Inhibition of human BHT-101 cell growth in a cell viability assay.

DOK = details: Homo sapiens, DOK;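 note: cell viability assay read-out, values reflect inhibition of cell growth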
Description: SANGER: Inhibition of human DOK cell growth in a cell viability assay.

EFM-19 = details: Homo sapiens, EFM-19;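 note: growth inhibition of human EFM-19 cells, measured in a cell viability assay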
Description: SANGER: Inhibition of human EFM-19 cell growth in a cell viability assay.

HCC1806 = details: Homo sapiens, HCC1806;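 note: growth inhibition of the cancer cell line, determined with a cell viability assay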
Description: SANGER: Inhibition of human HCC1806 cell growth in a cell viability assay.

HO-1-N-1 = details: Homo sapiens, HO-1-N-1;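 note: growth inhibition of human HO-1-N-1 cells, read out with a cell viability assay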
Description: SANGER: Inhibition of human HO-1-N-1 cell growth in a cell viability assay.

J82 = details: Homo sapiens, J82;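 note: growth inhibition of J82 cells, read out with a cell viability assay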
Description: SANGER: Inhibition of human J82 cell growth in a cell viability assay.

SCC-25 = details: Homo sapiens, SCC-25;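 note: growth inhibition of SCC-25 cells, measured with a cell viability assay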
Description: SANGER: Inhibition of human SCC-25 cell growth in a cell viability assay.

HSC-2 = details: Homo sapiens, HSC-2;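 note: growth inhibition of human HSC-2 cells, read out by a cell viability assay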
Description: SANGER: Inhibition of human HSC-2 cell growth in a cell viability assay.

KYSE-270 = details: Homo sapiens, KYSE-270;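 note: cell growth inhibition measured with a viability assay in the human KYSE-270 line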
Description: SANGER: Inhibition of human KYSE-270 cell growth in a cell viability assay.

NCI-H1623 = details: Homo sapiens, NCI-H1623;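 note: cell viability assay used as the read-out for growth inhibition of NCI-H1623 cells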
Description: SANGER: Inhibition of human NCI-H1623 cell growth in a cell viability assay.

PFSK-1 = details: Homo sapiens, PFSK-1;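 note: cell viability assay measuring how strongly compounds suppress growth of human PFSK-1 cells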
Description: SANGER: Inhibition of human PFSK-1 cell growth in a cell viability assay.

LCLC-103H cell line = details: Homo sapiens, LCLC-103H
Description: SANGER: Inhibition of human LCLC-103H cell growth in a cell viability assay.

LK-2 = details: Homo sapiens, LK-2;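 note: growth inhibition of LK-2 cells, read out with a viability assay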
Description: SANGER: Inhibition of human LK-2 cell growth in a cell viability assay.

HCC38 = details: Homo sapiens, HCC38;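 note: cell viability assay on the human HCC38 cell line, with IC50 marking the concentration that inhibits cell growth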
Description: SANGER: Inhibition of human HCC38 cell growth in a cell viability assay.

BT-20 = details: Homo sapiens, BT-20;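 note: cell viability assay measuring suppression of growth in human BT-20 cells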
Description: SANGER: Inhibition of human BT-20 cell growth in a cell viability assay.

NCI-H661 = details: Homo sapiens, NCI-H661;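 note: cell viability assay read-out, IC50 being the concentration that inhibits growth of the cells by half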
Description: SANGER: Inhibition of human NCI-H661 cell growth in a cell viability assay.

786-0 = details: Homo sapiens
Description: SANGER: Inhibition of human 786-0 cell growth in a cell viability assay.

C-33-A = details: Homo sapiens, C-33-A;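 note: cell viability assay measuring growth inhibition of C-33-A cells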
Description: SANGER: Inhibition of human C-33-A cell growth in a cell viability assay.

SW13 = details: Homo sapiens, SW13;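 note: IC50 is inhibition of SW13 cell growth, read out with a cell viability assay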
Description: SANGER: Inhibition of human SW13 cell growth in a cell viability assay.

CAL-62 = details: Homo sapiens, CAL-62;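 note: growth inhibition of CAL-62 cells, read out with a cell viability assay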
Description: SANGER: Inhibition of human CAL-62 cell growth in a cell viability assay.

EPLC-272H = details: Homo sapiens, EPLC-272H
Description: SANGER: Inhibition of human EPLC-272H cell growth in a cell viability assay.

SMILES: CC(C)c1ccccc1Cc1cc(C(=O)Nc2ccc(S(=O)(=O)c3ccccc3C(C)(C)C)cc2)c(O)c(O)c1O
- IC50 (SK-MES-1): 1040 nM
- IC50 (NCI-H2052): 1390 nM
- IC50 (YKG-1): 29.8 nM
- IC50 (SK-LU-1): 711 nM
- IC50 (A2780): 218 nM
- IC50 (SIMA): 664 nM
- IC50 (NY): 178 nM
- IC50 (A 172): 794 nM
- IC50 (AU565): 353 nM
- IC50 (G-361): 125 nM
- IC50 (SW1463): 64800 nM
- IC50 (HEC-1): 81.4 nM
- IC50 (HT-3): 192 nM
- IC50 (RPMI-7951): 888 nM
- IC50 (HSC-3): 286 nM
- IC50 (RMG-I): 207 nM
- IC50 (WM-115): 1210 nM
- IC50 (LoVo): 161 nM
- IC50 (HT-29): 1460 nM
- IC50 (HT-1080): 256 nM
- IC50 (BHT-101): 21.8 nM
- IC50 (DOK): 1340 nM
- IC50 (EFM-19): 1590 nM
- IC50 (HCC1806): 1430 nM
- IC50 (HO-1-N-1): 1420 nM
- IC50 (J82): 1130 nM
- IC50 (SCC-25): 523 nM
- IC50 (HSC-2): 664 nM
- IC50 (KYSE-270): 1080 nM
- IC50 (NCI-H1623): 595 nM
- IC50 (PFSK-1): 177 nM
- IC50 (LCLC-103H cell line): 210 nM
- IC50 (LK-2): 1500 nM
- IC50 (HCC38): 676 nM
- IC50 (BT-20): 656 nM
- IC50 (NCI-H661): 202 nM
- IC50 (786-0): 6970 nM
- IC50 (C-33-A): 109 nM
- IC50 (SW13): 204 nM
- IC50 (CAL-62): 308 nM
- IC50 (EPLC-272H): 703 nM

SMILES: CO[C@H]1C[C@@H]2CC[C@@H](C)[C@@](O)(O2)C(=O)C(=O)N2CCCC[C@H]2C(=O)O[C@H]([C@H](C)C[C@@H]2CC[C@@H](OC(=O)C(C)(CO)CO)[C@H](OC)C2)CC(=O)[C@H](C)/C=C(\C)[C@@H](O)[C@@H](OC)C(=O)[C@H](C)C[C@H](C)/C=C/C=C/C=C/1C [TEMSIROLIMUS]
- IC50 (SK-MES-1): > 200 nM
- IC50 (NCI-H2052): > 200 nM
- IC50 (YKG-1): > 200 nM
- IC50 (SK-LU-1): 102 nM
- IC50 (A2780): 5.88 nM
- IC50 (NY): > 200 nM
- IC50 (A 172): > 200 nM
- IC50 (AU565): > 200 nM
- IC50 (G-361): 146 nM
- IC50 (SW1463): > 200 nM
- IC50 (HEC-1): > 200 nM
- IC50 (HT-3): > 200 nM
- IC50 (RPMI-7951): 39 nM
- IC50 (HSC-3): 38.7 nM
- IC50 (RMG-I): > 200 nM
- IC50 (WM-115): > 200 nM
- IC50 (LoVo): > 200 nM
- IC50 (HT-29): > 200 nM
- IC50 (HT-1080): 17.9 nM
- IC50 (BHT-101): 197 nM
- IC50 (DOK): 41 nM
- IC50 (EFM-19): 81.5 nM
- IC50 (HCC1806): > 200 nM
- IC50 (HO-1-N-1): 8.2 nM
- IC50 (J82): 148 nM
- IC50 (SCC-25): > 200 nM
- IC50 (HSC-2): 200 nM
- IC50 (KYSE-270): 164 nM
- IC50 (NCI-H1623): > 200 nM
- IC50 (PFSK-1): 27.7 nM
- IC50 (LCLC-103H cell line): > 200 nM
- IC50 (LK-2): > 200 nM
- IC50 (HCC38): > 200 nM
- IC50 (BT-20): > 200 nM
- IC50 (NCI-H661): 117 nM
- IC50 (786-0): 51.7 nM
- IC50 (C-33-A): > 200 nM
- IC50 (SW13): 186 nM
- IC50 (CAL-62): 117 nM
- IC50 (EPLC-272H): > 200 nM

SMILES: Nc1cccc2c1CN(C1CCC(=O)NC1=O)C2=O (stereo unspecified) [LENALIDOMIDE]
- IC50 (SK-MES-1): > 5000 nM
- IC50 (NCI-H2052): > 5000 nM
- IC50 (YKG-1): > 5000 nM
- IC50 (SK-LU-1): > 5000 nM
- IC50 (A2780): > 5000 nM
- IC50 (NY): > 5000 nM
- IC50 (A 172): > 5000 nM
- IC50 (AU565): > 5000 nM
- IC50 (G-361): > 5000 nM
- IC50 (SW1463): > 5000 nM
- IC50 (HEC-1): > 5000 nM
- IC50 (HT-3): > 5000 nM
- IC50 (RPMI-7951): > 5000 nM
- IC50 (HSC-3): > 5000 nM
- IC50 (RMG-I): > 5000 nM
- IC50 (WM-115): > 5000 nM
- IC50 (LoVo): > 5000 nM
- IC50 (HT-29): > 5000 nM
- IC50 (HT-1080): > 5000 nM
- IC50 (BHT-101): > 5000 nM
- IC50 (DOK): > 5000 nM
- IC50 (EFM-19): > 5000 nM
- IC50 (HCC1806): > 5000 nM
- IC50 (HO-1-N-1): > 5000 nM
- IC50 (J82): > 5000 nM
- IC50 (SCC-25): > 5000 nM
- IC50 (HSC-2): > 5000 nM
- IC50 (KYSE-270): > 5000 nM
- IC50 (NCI-H1623): > 5000 nM
- IC50 (PFSK-1): > 5000 nM
- IC50 (LCLC-103H cell line): > 5000 nM
- IC50 (LK-2): > 5000 nM
- IC50 (HCC38): > 5000 nM
- IC50 (BT-20): > 5000 nM
- IC50 (NCI-H661): > 5000 nM
- IC50 (786-0): > 5000 nM
- IC50 (C-33-A): > 5000 nM
- IC50 (SW13): > 5000 nM
- IC50 (CAL-62): > 5000 nM
- IC50 (EPLC-272H): > 5000 nM
